The experiment relates to Saccharomyces cerevisiae ABC16-Green Monster. To be noted: 18 h; 30 °C; YPD. In outline: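 Growth of the drug-sensitive yeast strain S. cerevisiae ABC16-Green Monster was followed by OD600 at 0 h and 18 h after log-phase YPD cultures (200 µl per well, 96-well plates) were exposed at 30 °C to compound at final concentrations of 0.1–150 μM in eight 1:2 steps, in biological duplicate. Untreated cultures were run in parallel. Background-subtracted readings were fitted in GraphPad Prism with a variable-slope log(inhibitor) versus response model to give IC50.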

Drawing on the supplement of paper PMC8837787, this text covers IC50 growth inhibition for 73 compounds.

Where a name gives a salt, the structure may show the parent alone.

For `CCCCCC(=O)N[C@H](C(=O)N[C@@H](CCS(C)(=O)=O)C(=O)N[C@@H](CC(C)C)C(=O)[C@@]1(C)CO1)C(C)C` [Carmaphycin B], the IC50 growth inhibition came to 24.8 µM. As for `CC1(C)C=Cc2cc(C(=N)NOC(=O)c3ccccc3)ccc2O1`, the IC50 growth inhibition is 4.33 µM. With `CCC(C)C1OC2(CCC1C)CC1CC(CC=C(C)C(OC3CC(OC)C(OC4CC(OC)C(O)C(C)O4)C(C)O3)C(C)C=CC=C3COC4C(O)C(C)=CC(C(=O)O1)C34O)O2` (stereo not drawn) [Ivermectin], the IC50 growth inhibition is greater than 75 µM.

Compound `COc1ccc2cc(CN(C)CC(=O)Nc3sccc3C(N)=O)ccc2c1` displayed an IC50 growth inhibition of 60.6 µM. `Cc1cc(=O)nc(N/N=C/c2cc(C)n(CC(F)(F)F)c2C)[nH]1` came in with an IC50 growth inhibition of 81.9 µM. Take `CCS(=O)(=O)c1ncc(Cl)c(C(=O)Nc2ccc(C(=O)OC)cc2)n1`: the IC50 growth inhibition was 17.4 µM. For `Cc1ccc2nc3ccccc3c(N3CCN(C(=O)c4ccccc4)CC3)c2c1`, the IC50 growth inhibition was 6.15 µM.

For `Cc1nn2c(=O)cc(-c3ccccc3)[nH]c2c1-c1ccc(F)cc1`, the IC50 growth inhibition amounted to 39 µM. With `CCC1C=CC=CCC(C)C(O)C(C)(O)C(=O)C(C)C(O)C(C)C(=O)C(C)C(O)C(C)C=CC(=O)OC2C(C)C(CC1)OC1(CCC(C)C(CC(C)O)O1)C2C` (stereo not drawn) [Oligomycin], the IC50 growth inhibition was greater than 75 µM. Consider `Cc1noc(C)c1C(=O)N1CCCC(c2[nH]c3c(C)cccc3c2-c2ccncc2)C1` (stereo not drawn), for which the IC50 growth inhibition turned out to be 20.8 µM. `CC1N(C)c2ccc(/C=C/c3cc[n+](C)cc3)cc2C1(C)C` (stereo not drawn) gave an IC50 growth inhibition of 55.2 µM. Under `C=C1[C@@H](C)[C@H]2[C@H](Cc3ccccc3)NC(=O)[C@]23OC(=O)/C=C/[C@H](O)CCC[C@@H](C)C/C=C/[C@H]3[C@@H]1O` [Cytochalasin B] stands greater than 75 µM. `Cc1ccc(N/N=C/c2c3ccccc3cc3ccccc23)cc1Cl` gave an IC50 growth inhibition of 14 µM.

For `C[C@H]1Cc2c([nH]c3cc(Cl)c(F)cc23)[C@@]2(N1)C(=O)Nc1ccc(Cl)cc12` [KAE609], the IC50 growth inhibition was 7.65 µM.

For the compound `CN1CCN(c2ccccc2NC(=O)c2cccc(Oc3ccccc3)c2)CC1`, the IC50 growth inhibition worked out at 98.9 µM. In the case of `CCCCCCCCCCCCCCCCCCOCC(COP(=O)([O-])OCC[N+](C)(C)C)OC` (stereo not drawn) [Edelfosine], the IC50 growth inhibition is 29.1 µM. For `CCC(C(C)O)n1ncn(-c2ccc(N3CCN(c4ccc(OCC5COC(Cn6cncn6)(c6ccc(F)cc6F)C5)cc4)CC3)cc2)c1=O` (stereo not drawn) [Posaconazole], the IC50 growth inhibition came out at 0.71 µM. Turning to `CS(=O)(=O)Nc1nc(-c2ccccn2)nc2scc(-c3ccccc3)c12`, the IC50 growth inhibition was determined as 13.8 µM. With `COc1ccc(Nc2nc(NCc3ccccc3)c3ccccc3n2)cc1`, the IC50 growth inhibition amounted to 7.72 µM. For the compound `OCCNc1nc(Oc2ccc(-c3ccccc3)cc2)nc2ccccc12`, the IC50 growth inhibition amounted to 21.7 µM. `Cc1cc(C(=O)NCCc2cccc(F)c2)c(C)n1C(C)C` displayed an IC50 growth inhibition of 20.7 µM. The compound `O=C(c1c[nH]c(-c2ccnc(N3CCCC3)c2)c1)c1ccccc1O` displayed an IC50 growth inhibition of 60.6 µM. Consider `O=C1NC(=O)C(c2cnc3ccccn23)=C1c1cn2c3c(cc(F)cc13)CN(C(=O)N1CCCCC1)CC2`, for which the IC50 growth inhibition was greater than 75 µM. With `CC(C)c1ccc(C2C3CCc4ccccc4C3=NN2CCO)cc1` (stereo not drawn), the IC50 growth inhibition was found to be 49.9 µM. Next, `CCc1ccc(Nc2cc(C)c3ccc(O)cc3n2)cc1`: 2.09 µM. Next, `CCS(=O)(=O)c1ncc(Cl)c(C(=O)Nc2cc(Cl)cc(Cl)c2)n1`: 6.66 µM; `Cc1cc(Nc2ccc(OCc3ccccc3)cc2)nc2cc(O)ccc12`: 2.38 µM; `Cc1nc(NC(=O)c2csc(NC3CCCC3)n2)sc1C`: 12.4 µM. Compound `O=C(Nc1c(O)cccc1-c1nc2c(C(=O)O)cccc2o1)c1cc(-c2ccccc2)on1` came in with an IC50 growth inhibition of 38.7 µM.

`Cc1ccc(Nc2nc(N)nc(CN(C)Cc3nc(=O)c4ccccc4[nH]3)n2)cc1` returned an IC50 growth inhibition of 32.3 µM. Next, `COCC1OC(=O)c2coc3c2C1(C)C1=C(C3=O)C2CCC(=O)C2(C)CC1OC(C)=O` (stereo not drawn) [Wortmannin]: 27.7 µM; `O=C1CCC(N2C(=O)c3ccccc3C2=O)C(=O)N1` (stereo not drawn) [Thalidomide]: greater than 75 µM; `CON=C(C(=O)OC)c1ccccc1CON=C(C)c1cccc(C(F)(F)F)c1` [Trifloxystrobin]: greater than 75 µM. Turning to `OC1=C2C(=Nc3ccccc3SC2c2ccco2)c2ccccc21` (stereo not drawn) [GNF-Pf-4283], the IC50 growth inhibition was determined as 11 µM. Under `OCc1ccc(-c2cncc(Nc3cccc(Cl)c3)c2)cc1` stands 6.31 µM; under `CCc1c(C(=O)Nc2nc(C)cs2)cnn1-c1cccc(Cl)c1`, 30.5 µM; under `CNC(=O)c1nn(C)c2c1C(C)(C)Cc1cnc(Nc3ccc(N4CCN(C)CC4)cc3)nc1-2` [milciclib maleate], 84.1 µM.

Compound `Oc1c(C(Nc2ccccn2)c2cccc(Cl)c2Cl)ccc2cccnc12` (stereo not drawn) [GNF-Pf-5250] returned an IC50 growth inhibition greater than 150 µM. As for `FC(F)(F)c1cccc(-c2nc3c(NCc4ccncc4)nccc3[nH]2)c1`, the IC50 growth inhibition is 41.6 µM. The compound `Cc1ccc2nc(-c3ccc(N(C)C)cc3)[nH]c2c1` yielded an IC50 growth inhibition of 11.8 µM. `CCC(C)(C)c1ccc(OCCOCC[n+]2ccccc2)c(C(C)(C)CC)c1.[Cl-]` [GNF-Pf-1618] registered an IC50 growth inhibition of 2.19 µM. `Cc1cc(C(=O)NCCSc2ccccc2)c(C)n1C(C)C`: the IC50 growth inhibition was 60.5 µM.

Consider `CC(C)=CCC/C(C)=C\CNCCNC1C2CC3CC(C2)CC1C3` (stereo not drawn), for which the IC50 growth inhibition turned out to be 18.2 µM. Consider `COc1ccc2sc(N(Cc3cccnc3)C(=O)c3ccc(C#N)cc3)nc2c1`, for which the IC50 growth inhibition was 3.85 µM. As for `Cc1cc(C(C)(C)CC(C)(C)C)ccc1OCCOCC[N+](C)(C)Cc1ccccc1` [KAAA726], the IC50 growth inhibition came to 3.74 µM. On to `Cc1cc(C)n(-c2ccc3c(Cl)cc(Cl)c(O)c3n2)n1`, for which the IC50 growth inhibition is 71.3 µM. In turn, `O=C(Nc1ccccc1)c1ccc(-c2cc3ccncc3cc2OC2CCNCC2)s1` registered an IC50 growth inhibition of 44.8 µM. In turn, `CNS(=O)(=O)c1ccc(C(=O)Nc2ccc(Nc3ccccc3)cc2)o1` came in with an IC50 growth inhibition of 92.5 µM.

In the case of `COC(=O)C1=C(C)NC(C)=C(C(=O)OC(C)C)C1c1cccc2nonc12` (stereo not drawn), the IC50 growth inhibition is 65.4 µM. Regarding `NC(=O)NO` [Hydroxyurea], the IC50 growth inhibition was greater than 75 µM. Next, `NCCN(C(=O)c1ccc(Cl)cc1Cl)c1ccc(OCc2ccc(Cl)cc2)cc1`: 10.5 µM; `COc1ccc2nc(S(=O)Cc3ncc(C)c(OC)c3C)[nH]c2c1` (stereo not drawn) [Omeprazole]: greater than 75 µM; `O=C(Nc1nc(-c2ccccn2)cs1)c1cncn1-c1ccccc1`: 26.2 µM.

Regarding `O=C(Nc1ccc(N2CCNCC2)cc1)c1ccn2ncc(-c3cccc(Cl)c3)c2n1`, the IC50 growth inhibition came out at 8 µM.

Take `OC(c1cc(C(F)(F)F)nc2c(C(F)(F)F)cccc12)C1CCCCN1` (stereo not drawn) [Mefloquine]: the IC50 growth inhibition turned out to be 29.9 µM.

`COc1ccc2nc3cc(Cl)ccc3c(N(C)CCc3ccc(OC)c(OC)c3)c2c1` had an IC50 growth inhibition of 27.2 µM. `Clc1ccc(COC(Cn2ccnc2)c2ccc(Cl)cc2Cl)c(Cl)c1` (stereo not drawn) [Miconazole] gave an IC50 growth inhibition of 0.007 µM. The compound `CCOC(=O)c1c(NC(=O)CNCc2ccccn2)sc(CC)c1C` gave an IC50 growth inhibition of 47.8 µM. Compound `CC(=O)OCC1OC([S-])C(OC(C)=O)C(OC(C)=O)C1OC(C)=O.CCP(CC)CC` (stereo not drawn) [Auranofin] showed an IC50 growth inhibition of 27.4 µM.

Take `Cc1nn(C(C)(C)C)c(C)c1/C=N/OC(=O)Nc1ccc(Cl)cc1`: the IC50 growth inhibition is 39.1 µM. Under `O=C([C@@H](c1ccc(Cl)cc1)c1cccnc1)N1CCN(c2ccc(C(F)(F)F)cc2)CC1` stands 50 µM. With `N#C/C(=N\Nc1cc(C(F)(F)F)cc(C(F)(F)F)c1)S(=O)(=O)c1cccs1`, the IC50 growth inhibition was 99 µM. As for `N#CC(C#N)=NNc1cc(Cl)cc(Cl)c1`, the IC50 growth inhibition amounted to 20.6 µM.

The compound `CCCc1nn(C)c2c(=O)nc(-c3cc(S(=O)(=O)N4CCN(C)CC4)ccc3OCC)[nH]c12` [Sildenafil citrate] had an IC50 growth inhibition greater than 75 µM.

On to `CC(C)(C)c1ccc(C(=N)NOC(=O)c2sccc2Cl)cc1`, for which the IC50 growth inhibition came to 8.34 µM. `Cc1nc2ccccc2nc1SC(C)C(=O)c1c[nH]c2ccccc12` (stereo not drawn) had an IC50 growth inhibition of 33.8 µM. As for `CC(C=CC(=O)NO)=CC(C)C(=O)c1ccc(N(C)C)cc1` (stereo not drawn) [Trichostatin A], the IC50 growth inhibition was found to be 50.6 µM. Consider `COC1C=COC2(C)Oc3c(C)c(O)c4c(c3C2=O)C(=O)C(=CNN2CCN(C)CC2)C(=C4O)NC(=O)C(C)=CC=CC(C)C(O)C(C)C(O)C(C)C(OC(C)=O)C1C` (stereo not drawn) [Rifampicin], for which the IC50 growth inhibition is greater than 75 µM.

`CN(C)CCNc1nc2sc3c(c2c(=O)n1Cc1ccco1)CCCCC3` had an IC50 growth inhibition of 32.5 µM. Take `Cc1cc(C)nc(-n2nc(C)cc2Nc2ccccc2)n1`: the IC50 growth inhibition was found to be 42.1 µM. Consider `CC(C)CC(NC(=O)C(Cc1ccccc1)NC(=O)c1cnccn1)B(O)O` (stereo not drawn) [Bortezomib], for which the IC50 growth inhibition was determined as 46.2 µM.

`CCCCCCCCCCCCCCCCOP(=O)([O-])OCC[N+](C)(C)C` [Miltefosine] registered an IC50 growth inhibition of 9.3 µM. Under `COC1CC2CCC(C)C(O)(O2)C(=O)C(=O)N2CCCCC2C(=O)OC(C(C)CC2CCC(O)C(OC)C2)CC(=O)C(C)C=C(C)C(O)C(OC)C(=O)C(C)CC(C)C=CC=CC=C1C` (stereo not drawn) [Rapamycin] stands 0.727 µM.
